This is an account of results in patent publication US9505763B2, “Cancer treatment using BMP inhibitor” (Vanderbilt University, priority 2011, dated 2016).

Molecules are shown by their SMILES. “Also recorded” adds a separate entry of the source.

One experiment deals with T1, alk2 (Mus musculus, UniProt P37172).
T1 construct: host or cells: C2C12
T1 sequence (P37172 21-509): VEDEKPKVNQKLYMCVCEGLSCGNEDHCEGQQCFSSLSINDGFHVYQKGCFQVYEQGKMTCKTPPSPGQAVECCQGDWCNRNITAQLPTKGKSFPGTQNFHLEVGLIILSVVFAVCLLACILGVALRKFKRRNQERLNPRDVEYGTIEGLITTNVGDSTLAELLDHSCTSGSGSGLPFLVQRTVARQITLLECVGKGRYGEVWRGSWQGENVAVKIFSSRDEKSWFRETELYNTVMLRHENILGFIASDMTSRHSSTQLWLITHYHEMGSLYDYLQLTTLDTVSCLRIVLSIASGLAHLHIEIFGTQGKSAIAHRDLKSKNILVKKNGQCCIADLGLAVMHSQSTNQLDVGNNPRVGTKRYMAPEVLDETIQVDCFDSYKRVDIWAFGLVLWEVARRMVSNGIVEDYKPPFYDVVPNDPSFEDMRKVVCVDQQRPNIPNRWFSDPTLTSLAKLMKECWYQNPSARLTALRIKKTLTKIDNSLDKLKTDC
The conditions noted are these: reported [26]; cited from earlier work.

The test system of experiment [1] is H1299 cells. Briefly: Trypan blue cell death counts. It counts as cell-based. The settings on record: 4 days.
For a further experiment, the system named is Smad 1/5/8 activity. Put plainly: BRE-luciferase reporter assay. It counts as cell-based. The conditions noted are these: H1299 cells; 10 μM Dorsomorphin or 1 μM DMH1, DMH2, LDN; 48 hours; vs DMSO. The method, then:
Luciferase Assays. 10^6 H1299 cells were transfected with 2 μg of BRE-luciferace plasmid using a Nucleofector II. […] Cells were lysed with luciferase lysis buffer (Promega). Samples were added to luciferase assay substrate (Promega) and luminsescence measured by the TD-20/20 Luminometer (Turner Designs/Turner BioSystems, Sunnyvale, Calif.). Control samples included luciferase assay substrate alone and luciferase assay substrate plus 1× reporter lysis buffer.

In experiment [2] the test system is H1299 cells. Briefly: Amine-reactive fluorescent dye (LIVE/DEAD) flow cytometry. It counts as cell-based. The method, then: Cell death was also determined using the LIVE/DEAD fixable dead cell stain kit as per manufacturer's instructions (Life Technologies, L-23101). This assay employs an amine-reactive fluorescent dye, which in compromised membranes the dye reacts with free amines on the cell interior in dead cells. H1299 cells were treated with DMH2 for 48 hours and the percentage of dead cells then detected by flow cytometry.

The test system of the next experiment is A549 cells. Briefly: Ethidium bromide uptake cell death assay. The conditions noted are these: 48 hours, 10 μM Dorsomorphin or 1 μM selective antagonist. It counts as cell-based. The method, then:
Cell Death Assay: A549 and H1299 cells were plated in 6 well plates with 10^6 cells per well. Cells were treated with DMSO or a BMP receptor antagonist for 12 and 48 hours. Adherent and floating cells were harvested and incubated with 0.1 mg/ml of ethidium bromide. Immediately after staining approximately 100 cells were counted and the percentage of cells that took up ethidium bromide was determined.

The test system of another experiment is Id1 and Id3 protein. Briefly: Western blot for Id1 and Id3. It is filed as cell-based. Here is the method:
Western Blot Analysis. Total cellular protein was prepared using RIPA buffer containing a protease inhibitor cocktail and protein concentration was measured using the BCA assay as described. In brief, protein was analyzed by SDS-PAGE, transferred to nitrocellulose (Schleicher and Schuell, Keene, N.H.). After blocking, the blots were incubated overnight at 4° C. with the appropriate primary antibody in Tris-buffered saline with 1% Tween (TBST) and 5% non-fat milk. Secondary antibodies were applied for 1 hour at room temperature. Specific proteins were detected using the enhanced chemiluminescence system (Amersham, Arlington Heights, Ill.). The primary antibodies that were used were rabbit monoclonal anti-pSmad 1/5/8 (Cell signaling Technology, Danvers Mass.) rabbit anti-actin, an affinity isolated antigen specific antibody (Sigma, Saint Louis, Mo.), rabbit monoclonal anti-Id1 and rabbit monoclonal anti-Id3 (Calbioreagents, San Mateo, Calif.).

For `CN(C)CCCOc1ccc(-c2cnc3c(-c4ccnc5ccccc45)cnn3c2)cc1` [DMH2], the “inhibition of alk2 activity” value at alk2 is “inhibit”. The “percentage of dead cells (trypan blue)” value in the experiment with H1299 cells [1] (H1299 cultured in SFM, 1 μM, compared with DMEM 5% FCS) is reported as “even higher”. Also, the “cell death (percentage of dead cells, trypan blue)” value in the experiment on H1299 cells [1] (H1299 in DMEM 5% FCS, 1 μM and 5 μM) is given as “significant increased in cell death, which was dose dependent”. Further, the “Smad 1/5/8 activity (BRE-luciferase activity)” value in the experiment on Smad 1/5/8 activity is “significant decrease”. The “cell death (amine-reactive fluorescent dye)” value in the experiment with H1299 cells [2] is listed as “induced cell death”. Also, the “cell death (percentage of cells taking up ethidium bromide)” value in the experiment with A549 cells is reported as “significant increase in cell death”. Besides, the “protein levels of Id1 and Id3” value in the experiment on Id1 and Id3 protein (A549 and H1299 cells) was “decrease”. In addition, the “reduction of Id1 protein expression (comparison)” value with Id1 and Id3 protein (H1299 and A549 cells, 1 μM) is recorded as “greater reduction of Id1 in H1299 cells compared to A549 cells; also recorded: greater reduction of Id1 protein expression than DMH1”.
